Data taken from patent US8986696B2, “Trans-capsular administration of p38 map kinase inhibitors into orthopedic joints” (DePuy Mitek, Inc., priority 2007, dated 2015).
Where two headings read alike, the source gives them in different places.

Legend:
solubility = type: physicochemical
[1] = system: IL-1β-stimulated NO production, bovine chondrocyte pellets / ARC tissues; assay: chondrocyte pellet culture model: total nitrite/nitrate (NO); type: cell-based; conditions: for NO production: 10 ng/ml IL-1β
Excerpt: (§1) Calf articular cartilage was obtained from the knee joints of eight to twelve month old animals and was processed within twenty-four hours after sacrifice. After removal of muscle and ligament, the cartilage was kept moist using phosphate buffer solution (PBS) to prevent tissue dehydration, and was aseptically peeled off from subchondral bone with a scalpel, and the cartilage pieces were further minced into smaller pieces (˜0.3-0.5×˜0.2-0.5 cm cubes). […] Chondrocytes were then enzymatically isolated from the tissue by incubation for overnight at 37° C. with gentle agitation in 0.2% collagenase in Dulbecco's modified eagle media (DMEM). After removal of tissue debris by filtration through cell strainer and the residual collagenase by 3× wash in PBS, cells were finally resuspended at a density of 2.5×10^6 cells/ml in chondrocyte medium. A 1 ml aliquot of the cell suspension was dispensed into either a 15 ml Falcon centrifuge tube or a 96 deep-well plate and centrifuged at 2000×g for five minutes. The chondrocyte pellets were incubated at 37° C. in a humidified atmosphere of 5% CO2 for two to three weeks with a medium change every other day.
(§2) As an alternative to using calf articular cartilage, a commercial Alginate Recovered Chondrocytes (ARC) system was also used (Articular Engineering, LLC (Northbrook, Ill.)). Use of the commercial system cut down on labor and time in producing chondrocyte pellet. This system produced cartilaginous tissue in vitro using bovine chondrocytes. The first step consisted of culturing chondrocytes in alginate under conditions optimal for the formation of a cell-associated matrix (CM). The second step allowed these cells with their CM, after recovery, to rapidly form and become integrated into a solid mass of cartilage on a porous insert within two weeks. This tissue is rich in cells surrounded by a cell-associated matrix that is degraded rapidly when the cells are exposed to IL-1. ARC tissues in 3 mm punches at delivery were first dispensed into a 96 deep-well plate, one punch per well, for compound treatment. The subsequent procedures were the same as those used for the chondrocyte pellets.
(§3) Chondrocyte pellets were washed once with 1 ml of Chondrocyte Stimulation Medium and equilibrated in the same medium at room temperature for fifteen to thirty minutes. Compounds were dissolved in H2O, Ethanol or dimethyl sulfoxide (DMSO) (10^−2 M) according to suppliers' instructions and further diluted with Chondrocyte Stimulation Medium to the required concentrations. DMSO concentrations in the culture media should not exceed 1%; this concentration of DMSO has no effect on cartilage proteoglycan metabolism in response to cytokines.
(§4) The pellets were first treated with compounds at desired concentrations at 37° C. for one hour and then incubated for three to five days in the absence or presence of 10 ng/ml of IL-1β. At the end of the incubation, media and pellets were harvested and frozen for further analysis. Pellets were also fixed as needed in 4% (w/v) paraformaldehyde in PBS for histology analysis.
Nitrate/Nitrite levels were measured using the Griess reaction (Green L. C. et al., “Analysis of Nitrate, Nitrite, and [15N]nitrate in Biological Fluids,” Anal. Biochem. 126: 131-138 (1982)) with aNitrate/Nitrite Colorimetric Assay Kit (Cayman Chemicals), the contents of which are incorporated herein by reference. The assay involved a simple two-step process. The first step involved conversion of nitrate in 50 μl of culture medium to nitrite utilizing nitrate reductase in a reaction volume of 100 μl at room temperature for two hours. The second step involved the addition of 50 μl of both Griess Reagent 1 and 2, which converted nitrite into a deep purple azo compound in ten minutes. Photometric measurement of the absorbance at 540 or 550 nm due to this azo chromophore accurately determined nitrite concentration. […]

[2] = system: IL-1β-stimulated PGE2 synthesis, bovine chondrocyte pellets / ARC tissues; assay: chondrocyte pellet culture model: PGE2; type: cell-based; conditions: for PGE2 synthesis: 10 ng/ml IL-1β
Excerpt: as §1, §2, §3, §4
Prostaglandin E2 (PGE2) was measured with a STAT-Prostaglandin E2 EIA ELISA kit (Cayman Biochemicals). This assay is based on the competition between PGE2 from 50 μl samples and a PGE2-alkaline phosphatase conjugate for a limited amount of PGE2 monoclonal antibody in a reaction volume of 150 μl at room temperature for one hour. The antibody-PGE2 complex bound to a goat polyclonal anti-mouse IgG that had been previously attached to the well. After washing to remove any unbound reagents, para-nitrophenyl phosphate (pNPP) was added to the well. The product of this enzymatic reaction absorbs strongly at 412 nm. Because of the large range in response to IL-1β and other cytokines, PGE2 values were converted to log scale prior to doing t-tests.

chondrocytes = type: cell-based
In short: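 Bovine chondrocyte pellets (calf articular cartilage, or alginate-recovered chondrocyte tissue punches) pretreated with compounds 1 h at 37 °C, then incubated 3-5 days with or without 10 ng/ml IL-1β, DMSO ≤1%. Media LDH activity measured colorimetrically via lactate-to-pyruvate conversion reducing INT tetrazolium to formazan.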

[3] = within the tested concentrations
[4] = diacerein at 5.4 μM, rhein at 0.35 μM

Q: Which results are given for `CC(=O)N1CCN(c2c(-c3ccncc3)c(-c3ccc(F)cc3)c(C#N)n2C)CC1` [JNJ 17089540 (RWJ 669307)]?
A: water solubility (solubility; HCl salt): > 100 mg/mL; IC50 ([1]; Pellet Assay, read-out: NO Inhibition IC50): 4.9 µM; IC50 ([1]; bovine ARC, 7.5 ng/ml IL-1β, five days, read-out: NO IC50): 4.92 µM; IC50 ([2]; Pellet Assay, read-out: PGE2 Inhibition IC50): 29.6 µM; IC50 ([2]; bovine ARC, 7.5 ng/ml IL-1β, five days, read-out: PGE2 IC50): 29.6 µM; cytotoxicity to chondrocytes (LDH, words) (chondrocytes): little cytoxicity

Q: With `OCCC#Cc1nc(-c2ccc(F)cc2)c(-c2ccncc2)n1CCCc1ccccc1` [JNJ 3026582 (RWJ 67657), 4-[4-(4-fluorophenyl)-1-(3-phenylpropyl)-5-(4-pyridinyl)-1H-imidazol-2-yl]-3-butyn-1-ol] as the compound, how does the “water solubility” value (solubility) read?
A: poor water solubility

Q: And the “pH at which soluble” value (solubility; soluble at pH<2)?
A: < 2

Q: And the “cytotoxicity to chondrocytes (LDH, words)” value (chondrocytes; [3])?
A: little cytoxicity

Q: Which “NO production” value [1, 4] does the source give for `CC(=O)Oc1cccc2c1C(=O)c1c(OC(C)=O)cc(C(=O)O)cc1C2=O` [Diacerein, reference compound] here?
A: significantly inhibited

Q: What about the “PGE2 synthesis” value [2, 4] of the same compound?
A: no effect

Q: Which results are given for `C[C@H](Nc1nccc(-c2c(-c3ccc(F)cc3)nc3nc(N)ccn23)n1)c1ccccc1` [JNJ 7583979 (RWJ 351958)]?
A: water solubility (solubility): poor water solubility; NO production ([1]; ARC): significantly inhibited; PGE2 synthesis ([2]; ARC): significantly inhibited; cytotoxicity to chondrocytes (LDH, words) (chondrocytes; [3]): little cytoxicity
